The text below walks through data of the METLIN SMRT retention time set (Domingo-Almenara et al. 2019).

The data set is described as follows: gradient 5% acetonitrile 3 min, to 50% in 2 min, to 85% in 15 min, held 3 min, 100 µL/min. Conditions: column: Zorbax Extend-C18 2.1 x 50 mm; eluents: water / acetonitrile, 0.1% formic acid. Put shortly: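 A Zorbax Extend-C18 column (2.1 × 50 mm, 1.8 μm) run at 100 μL/min with water and acetonitrile, both containing 0.1% formic acid, separated mixtures of ~100 pure standards. The HPLC was coupled to a quadrupole time-of-flight mass spectrometer operated in positive and negative ionization mode, with dead and dwell volumes of 40 μL and 900 μL. Each retention time was taken from a computationally picked adduct peak that was then manually inspected.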
As for `COc1ccc(CCC(=O)N2CCC3(CC2)C(=O)N(C)c2ccccc23)cc1`, the RP-LC retention time was 867 s. `CCOC(=O)c1c(C)oc2ncnc(NCCN3CCN(c4ccc(OC)cc4)CC3)c12` had an RP-LC retention time of 716 s.

The molecule `O=C(c1cc(F)ccc1Cl)N1CCN(c2ncccc2-c2nnc(C3CC3)o2)CC1` showed an RP-LC retention time of 834 s. The same measure for `O=C(Cc1cccs1)NC1CCN(c2cc(N3CCCC3)cnn2)C1` (stereo not drawn): 608 s; for `CCOC(=O)c1csc(NC(=O)Cn2cnc(C)cc2=O)n1`: 598 s; for `COc1ccc2[nH]c(=O)c(CCC(=O)N3CCN(c4ccccn4)CC3)cc2c1`: 568 s.

With `O=C(C1CCN(S(=O)(=O)c2cc(-c3noc(C4CC4)n3)cs2)CC1)N1CCc2ccccc21`, the RP-LC retention time is 1070 s. `COC(=O)C1=CN(c2ccc(Cl)cc2)c2ccc(F)cc2S1(=O)=O` displayed an RP-LC retention time of 894 s. Molecule `Cc1nn(CC(=O)Nc2ccc(Cl)cc2F)c(=O)c2noc(C)c12` had an RP-LC retention time of 796 s.

Molecule `C=CCn1c(C)c(CC(=O)NC(C)C)c(=O)n2nc(-c3ccccc3)nc12` had an RP-LC retention time of 733 s. The same measure for `Cc1ccc(CNC(=O)C2CCCN(c3nc4ccsc4c(=O)n3-c3ccc(C)cc3)C2)cc1` (stereo not drawn): 977 s.

Molecule `Cc1cc2nn(CC(=O)Nc3ccc(F)c(F)c3)c(=O)n2c(Nc2ccc(F)c(C)c2)n1` yielded an RP-LC retention time of 1090 s. As to `Cc1cccc(CNC2=NCCNC23CCN(S(=O)(=O)c2ccc4c(c2)CCCC4)CC3)c1`, the RP-LC retention time was 854 s. The same measure for `c1cc(Cc2nc(-c3ccc4c(c3)ncn4CCN3CCCCC3)no2)cs1`: 632 s; for `CCOc1ccc(-n2c(CN3CCN(C(=O)NCCC(C)C)CC3)nc3cccnc32)cc1`: 684 s; for `CC(=O)Nc1cccc(N2CC(C(=O)Nc3ccc(OC(F)(F)F)cc3)CC2=O)c1` (stereo not drawn): 760 s.

Regarding `c1ccc(-c2nc(C3CC3)no2)c(OC2CN(Cc3ccncc3)C2)c1`, the RP-LC retention time is 611 s.

Molecule `CCn1nc(-c2csc(S(=O)(=O)N3CCC(C)CC3)c2)ccc1=O` registered an RP-LC retention time of 971 s.

As for `CCn1ncc2ccc(C(=O)NC(C)C)cc21`, the RP-LC retention time was 702 s. The same measure for `CCn1cnc(S(=O)(=O)N2CCCC(C(=O)Nc3ccc(C)c(C)c3)C2)c1` (stereo not drawn): 800 s. Regarding `CC(C)N1CCN(C(=O)c2nc(N3CCSCC3)c3cnn(C)c3n2)CC1`, the RP-LC retention time worked out at 577 s. Next, `COc1ccc(C2CC(=O)c3cnc(Nc4nc(C)c5cc(C)c(C)cc5n4)nc3C2)cc1` (stereo not drawn): 775 s; `O=C(c1ccn2c(-c3cccc(Cl)c3)nnc2c1)N1CCN(c2ccccn2)CC1`: 608 s. Next, `CCC(=O)Nc1c(C)noc1/C=C/c1ccc(S(=O)(=O)N2CCC(C)CC2)s1`: 919 s.

For `O=C(Nc1cccc(Cl)c1)N1CCC(N2CCN(Cc3ccccc3)C(=O)C2=O)CC1`, the RP-LC retention time came out at 736 s. `COc1ccc(C2(C(=O)N3CCCC(c4nc(-c5ccc(NC(C)=O)cc5)no4)C3)CC2)cc1` (stereo not drawn): the RP-LC retention time turned out to be 835 s. The molecule `COc1ccc(F)cc1S(=O)(=O)N1CC(c2nc(-c3ccsc3)nn2C)C1` returned an RP-LC retention time of 841 s. Next, `CC(CCc1ccccc1)NC(=O)CCc1c(-c2ccc(F)cc2)nc2ccccn12` (stereo not drawn): 727 s. The molecule `CCOc1cccc(-c2noc(Cn3c(=O)n(-c4ccc(Cl)cc4)c(=O)c4sccc43)n2)c1` had an RP-LC retention time of 1130 s. The same measure for `O=C(NCCCN1CCCCCC1)C1CCCN(c2nc3cccnc3s2)C1` (stereo not drawn): 595 s; for `CC(CN(CCS(=O)(=O)N1CCNCC1)C(=O)c1ccc(Br)cc1)c1ccccc1` (stereo not drawn): 735 s; for `COc1ccc2c(C)cc(SCC(=O)Nc3c(C)cccc3C)nc2c1`: 995 s.

Take `CC(C)NC(=O)c1nnc(-c2ccc(S(=O)(=O)N(C)C)cc2)o1`: the RP-LC retention time was determined as 737 s. The same measure for `COCCCNC(=O)C1(c2ccc(NC(=O)c3cccs3)cc2)CC1`: 746 s.

In turn, `Cc1cc(C)cc(NC(=O)c2c(C)oc3nc(C)nc(N4CCOCC4)c23)c1` registered an RP-LC retention time of 888 s. The molecule `Fc1ccccc1-c1nc2ccc(Cl)cn2c1Nc1ccc(Cl)cc1` registered an RP-LC retention time of 909 s.

Molecule `O=C1CCCc2cc(S(=O)(=O)NCCCN3CCN(c4ccccc4F)CC3)ccc2N1` displayed an RP-LC retention time of 621 s.

In turn, `Cc1ccc(C)c2sc(N(C)CC(=O)NCCSc3nncn3C)nc12` returned an RP-LC retention time of 719 s. The molecule `CS(=O)(=O)Nc1cccc(NC(=O)c2ccc(N3CCOCC3)nn2)c1` yielded an RP-LC retention time of 633 s.

The molecule `COc1ccc(C2C(C(=O)Nc3ccccn3)c3cc(OC)c(OC)cc3C(=O)N2C)cc1OC` (stereo not drawn) had an RP-LC retention time of 677 s. Molecule `CCCN(CC1CCOC1)C(=O)c1ccc(F)cc1F` (stereo not drawn) gave an RP-LC retention time of 743 s.

In the case of `O=C(C1CCN(S(=O)(=O)c2ccc(-c3noc(COc4ccccc4)n3)cc2)CC1)N1CCCC1`, the RP-LC retention time was determined as 961 s. Regarding `CC1CN(c2nc3c(c(=O)n(C)c(=O)n3C)n2Cc2cccc(F)c2)CC(C)O1` (stereo not drawn), the RP-LC retention time turned out to be 885 s. Next, `Cc1noc(C2CN(C(=O)Nc3cc(Cl)ccc3C)CC23CCOCC3)n1` (stereo not drawn): 760 s; `CCc1onc(C)c1C1CCCN1C(=O)c1cc(-c2ccc3c(c2)OCO3)on1` (stereo not drawn): 928 s; `CC(C(=O)NCCCN1CCCCC1)n1ccc2cc(S(=O)(=O)N3CCCCCC3)ccc21` (stereo not drawn): 707 s.

With `CCOC(=O)Cn1c(C2CC(=O)N(c3ccccc3Cl)C2)nc2ccccc21` (stereo not drawn), the RP-LC retention time is 761 s. The same measure for `O=C1COc2ccc(Cl)cc2N1Cc1nc(-c2cccc(-c3csc(C4CC4)n3)c2)no1`: 1300 s; for `COC(=O)C(C)NC(=O)NCc1cccn1Cc1cccc(F)c1` (stereo not drawn): 792 s; for `CCN1CCN(c2cc(C)c3cc(NC(=O)c4ccc([N+](=O)[O-])c(C)c4)ccc3n2)CC1`: 621 s. Next, `O=C(Cn1ccnc1-c1ccnc(N2CCOCC2)c1)Nc1cccc(Br)c1`: 648 s; `Cc1ccc(-c2cc3n(n2)CCCN(C(=O)CCCC(=O)n2nc(C)c4ccccc42)C3)o1`: 859 s. The same measure for `Cc1ccc(Cl)cc1N1CCN(C(=O)CN2C(=O)CN(C)C(=O)c3ccccc32)CC1`: 867 s; for `Cc1nnc2ccc(S(=O)(=O)N(Cc3ccc(F)cc3)c3ccc(F)cc3)cn12`: 892 s. Regarding `O=C(NCc1ccc(F)cc1)c1ccc2c(c1)nc1n2CCN(c2ccccc2)C1=O`, the RP-LC retention time turned out to be 760 s.

`CC(=O)N1CCCC1CCc1ncc(C)n1C(C)C` (stereo not drawn) came in with an RP-LC retention time of 577 s. The same measure for `Cc1ccc(-c2cc3c4nnc(CCC(=O)NCc5ccccc5C(F)(F)F)n4ccn3n2)cc1C`: 952 s. Regarding `Cc1cc(Nc2cc(CN3CCOCC3)c3nc(C)c(Cc4ccc(Cl)cc4F)n3n2)n[nH]1`, the RP-LC retention time is 712 s. Next, `COc1ccc(CC(=O)N2CCN(c3ccc(-c4nc(C)cs4)cn3)CC2)cc1`: 851 s; `Cc1ccc(CNC(=O)Cn2nc3c4cc(-c5cc(C)ccc5C)nn4ccn3c2=O)cc1`: 985 s; `COc1ccc(Cl)cc1S(=O)(=O)N1CCc2c(c(-c3nnc(-c4ccccc4)o3)nn2C)C1`: 958 s. Consider `COc1ccccc1C(=O)N1CCC2(CC1)N=C(c1ccc(Cl)cc1)NO2`, for which the RP-LC retention time amounted to 865 s. Next, `CCc1cc(=O)n(CC(=O)Nc2cccc(C)c2C)c(N)n1`: 608 s; `CC1=C(c2ccc(F)cc2)S(=O)(=O)N=C1N1CCCN(C(=O)c2cccc(F)c2)CC1`: 835 s; `COc1c(C(=O)NC(C)(C)C)sc2ccc(F)cc12`: 1080 s. The same measure for `COc1ccc(OC)c(S(=O)(=O)N2CCCOCCNC(=O)[C@@H]3CCC[C@@H]32)c1`: 720 s; for `Cc1ccn(S(=O)(=O)c2ccc(C(C)(C)C)cc2)n1`: 983 s.

Molecule `COCCN1C(=O)CCc2cc(NC(C)=O)ccc21` yielded an RP-LC retention time of 604 s. Next, `CN(C)c1cccc(-c2nn3c(CSc4ccccc4)nnc3s2)c1`: 1070 s.

For `CCCNc1nnc(-c2nnc(CC)o2)c2ccccc12`, the RP-LC retention time came out at 647 s. Next, `O=C(NCc1ccccn1)c1cccc(N2CCNC(c3ccccc3)C2)n1` (stereo not drawn): 564 s; `CN1C(=O)C(CC(=O)NCc2ccccn2)Sc2ncccc21` (stereo not drawn): 762 s.

With `Cc1cccc(Nc2c(-c3ccc(N4CCOCC4)cc3)nc3ncccn23)c1`, the RP-LC retention time was determined as 717 s. `CCCCNc1nc2c(c(=O)n(C)c(=O)n2C)n1CC(O)COc1ccccc1` (stereo not drawn): the RP-LC retention time turned out to be 882 s. The same measure for `O=C(NCc1cccc(Br)c1)C1CCCN(c2cnc3nccnc3c2)C1` (stereo not drawn): 739 s; for `O=C(Nc1cnc(N2CCCC2)nc1)c1cccc(Br)c1`: 796 s; for `COc1ccc(NC(=O)C2CCCN(c3nnc4ccc(Cl)cn34)C2)cc1` (stereo not drawn): 666 s. Next, `Cc1ccc(C(=O)N2CCC3(CC2)NC(=O)c2ccc(F)cc2N3C)cc1`: 763 s.
